Data taken from patent EP4810046A1, “USE OF PENTACYCLIC TRITERPENE COMPOUND TARGETING HYDROXYSTEROID 17-B DEHYDROGENASE 4” (Jiangsu Bcy Pharm. Co., Ltd, priority 2023, dated 2025).

Legend:
AD mice = assay: Behavioral tests (Morris water maze, open field, Y-maze) in AD mice after oral gavage treatment; format: in vivo; conditions: compared with vehicle control group
Experimental: For evaluation of therapeutic efficacy in animal models, a 15mg/mL CKBA suspension (solvent: 0.5% sodium carboxymethylcellulose) was administered by oral gavage at a volume of 200µL (equivalent to a dose of 100mg/kg). […] Therapeutic efficacy was evaluated after the treatment period.
• (1) 5xFAD transgenic mice: These mice overexpress mutant human APP (695) carrying the Swedish (K670N, M671L), Florida (I716V) and London (V717I) familial Alzheimer's disease (FAD) mutations, as well as human PS1 carrying two FAD mutations (M146L and L286V). Expressions of both transgenes are driven by the mouse neuron-specific regulatory element Thy1 promoter to achieve overexpression in the brain. […] 5XFAD mice produce almost exclusively Aβ-42 and rapidly accumulate it in the brain. • (2) Preparation of MS mouse (EAE) model and evaluation of CKBA intervention efficacy
Evaluation of the therapeutic effect of CKBA on AD: 8-10 month old 5xFAD mice, 5xFAD mice treated with the small molecule drug CKBA and control mice were subjected to behavioral tests including the Morris water maze, open field test and rotarod test to evaluate higher central nervous system functions. During the behavioral tests, the animal movement trajectory tracking system (EthoVision XT 16.0) was used for full-recording and offline analysis.
Morris water maze: Mice underwent a 5-day adaptive training period, wherein abnormal individuals were excluded. On the final day, after removing the platform, a probe trial was performed. Quantitative data were recorded, including the escape latency after entering the water in each quadrant during the learning phase, the number of platform crossings, and the latency to reach the platform area.
Open field test: The spontaneous activity path of mice in a 50cm*50cm*40 cm novel open field within 5 minutes was recorded. The distance traveled and time spent in the center area were analyzed to assess anxiety-related behavior.
AD mice were treated with CKBA by oral gavage (Figure 5A) for in vivo intervention studies, with continuous intervention for 3 months. […]

LPS-activated BV2 cells = assay: CCK-8 assay of CKBA-treated LPS-activated BV2 cells; format: cell-based, mouse; conditions: 0.1-20 µM CKBA, 24 hours
Experimental: The mouse microglial cell line BV2 was seeded into 96-well flat-bottom plates and cultured overnight to allow full cell adherence. BV2 cells were activated by stimulation with LPS. LPS (Sigma) stock solution (5 mg/mL) was added to the BV2 cell culture supernatant and mixed well. After 12 hours of activation, cell morphology was observed. […]
Subsequently, a CCK8 assay (Dojindo, Japan) was performed to measure cell viability. The cell culture medium was removed from the 96-well plate, and 100 µL of diluted CCK8 reaction solution was added to each well. The plate was protected from light. Incubation conditions: 37°C incubator for about 1-2 hours. After 1 hour of incubation, the plate was removed, and the colorimetric (orange) signal was detected using a multifunctional microplate reader (Tecan Infinite 200 pro, Austria). Depending on the signal intensity, the plate could be further incubated for 1.5/2 hours, and the signal was measured at multiple time points. The colorimetric intensity values were recorded, and subsequent statistical analysis and graphing were performed using SPSS.
In vitro cell experiments were performed to analyze the effect of CKBA on the inflammatory activation of microglia.

MFE-2 [1] = target: T1, MFE-2 (Mus musculus, UniProt P51660); assay: CKBA-biotin pull-down and Western blot for direct binding to MFE-2; conditions: microglial cell line (BV2), CKBA-biotin 5µM, 6 hours
T1 construct: endogenous in cells; host or cells: BV2 mouse microglial cell line
T1 sequence (P51660 1-735): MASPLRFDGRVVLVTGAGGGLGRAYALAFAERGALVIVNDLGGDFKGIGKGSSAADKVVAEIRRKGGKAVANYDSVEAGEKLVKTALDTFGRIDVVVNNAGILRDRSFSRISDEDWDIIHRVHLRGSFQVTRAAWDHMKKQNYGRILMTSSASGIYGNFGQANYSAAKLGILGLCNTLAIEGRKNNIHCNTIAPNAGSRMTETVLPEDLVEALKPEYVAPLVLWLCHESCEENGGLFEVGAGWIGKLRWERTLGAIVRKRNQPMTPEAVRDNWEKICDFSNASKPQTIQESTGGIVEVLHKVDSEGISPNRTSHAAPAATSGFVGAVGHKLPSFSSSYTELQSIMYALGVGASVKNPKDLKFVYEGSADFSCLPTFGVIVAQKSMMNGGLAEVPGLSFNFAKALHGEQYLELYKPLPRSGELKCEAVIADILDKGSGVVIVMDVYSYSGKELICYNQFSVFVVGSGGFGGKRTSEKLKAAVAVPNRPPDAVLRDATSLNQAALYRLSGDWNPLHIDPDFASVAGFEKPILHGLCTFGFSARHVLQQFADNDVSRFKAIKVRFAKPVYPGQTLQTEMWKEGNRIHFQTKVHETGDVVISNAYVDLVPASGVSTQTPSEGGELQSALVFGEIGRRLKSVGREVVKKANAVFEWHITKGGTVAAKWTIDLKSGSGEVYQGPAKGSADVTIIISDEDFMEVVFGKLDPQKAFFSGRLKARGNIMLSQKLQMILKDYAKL
Experimental: CKBA pull-down assay was performed to detect the direct interaction between CKBA and MFE-2. Specifically, CKBA was labeled with Biotin. CKBA-biotin was added to the culture medium at a final concentration of 5µM for 6 hours. Cells were then washed, lysed, and incubated with Streptavidin magnetic beads under rotation at 4°C for 3 hours. After washing the beads 4 times, loading buffer was added, and the samples were boiled at 96°C for 5 minutes. Western blot (WB) was used to detect MFE-2 protein levels to assess the direct interaction between the small molecule compound and MFE-2.
(§1) The Western blot procedure comprised: fresh cells or tissue samples were immersed in lysis buffer and placed on ice for 10-15 minutes. After observing that the cells/tissues were fully lysed into a homogeneous turbid liquid, the samples were placed on ice for an additional 10 minutes. Centrifugation was performed at 12000 rpm for 10 minutes, and the supernatant was collected. Total protein concentration was determined using the BCA method. Subsequently, steps including loading, electrophoresis, membrane transfer, blocking, and incubation with primary and secondary antibodies were carried out. After developing with ECL chemiluminescent substrate, ImageJ was used to analyze protein content.

Solubility description = format: physicochemical; conditions: methanol/DMSO; water
inflammatory microglia = assay: Seahorse energy metabolism (OCR) assay of CKBA-treated, LPS-stimulated BV2 cells; format: cell-based, mouse; conditions: Figure 4B
Experimental: The specific methods for CKBA treatment and LPS activation of the BV2 cell line were as described above.
The main steps of the Seahorse assay were as follows: Seahorse XF Cell Mitochondrial Stress Analysis: Single cells from brain tissue were obtained using the aforementioned experimental methods. Microglia in brain tissue were collected by flow cytometry sorting. Primary microglia were seeded into Seahorse XF cell culture plates 4-7 days in advance. After the cells were fully adherent, the probe plate was hydrated with double-distilled water and placed in a CO2-free 37°C incubator overnight. The next day, the calibration solution was replaced to further equilibrate and hydrate the probes. On the day of the experiment, the assay solution was prepared, and the corresponding substrates (glucose, pyruvate, glutamine, etc.) from the kit were added. The pH was adjusted to 7.4. […] OCR/ECAR values were recorded at different time points after drug addition. After recording, the cell plate was removed, and the number of microglia per well was counted under an inverted microscope. After normalizing OCR/ECAR to the cell number, intracellular mitochondrial stress levels were quantitatively analyzed.
Seahorse energy metabolism analysis was performed. By measuring the changes in oxygen consumption reagents and dissolved oxygen content in the cell culture medium, the OCR of the cells was calculated.

[2] = mouse, po, 100 mg/kg
Experimental: Based on the above optimized method, the absolute content of CKBA in brain tissue was further detected. For absolute content detection of CKBA in brain tissue, normal mice were administered CKBA by oral gavage. One hour after administration, the mice were perfused, and fresh brain tissue and serum were collected for mass spectrometry analysis.

MFE-2 [3] = target: T1, MFE-2; assay: MFE-2 protein expression in BV2 cells with and without LPS stimulation (Western blot); format: cell-based
Experimental: Cell treatment: For cell treatment, CKBA was dissolved in DMSO to prepare a stock solution at a concentration of 5mM (1000×), stored at -20°C. For use, the stock solution was added to the cell culture medium at a dilution of 1:1000 and mixed well. The final working concentration was 5µM. Cells were treated for 24-48h and then collected for subsequent experiments.
as §1
Further exploration was conducted to investigate the mode of action of CKBA on the MFE-2 protein.

binding to MFE-2 protein (pull-down) (MFE-2 [1]): could bind to the MFE-2 protein
Compound: C[C@H]1[C@H](C)CC[C@]2(C)CC[C@]3(C)C(=CC(=O)[C@@H]4[C@@]5(C)CC[C@@H](OC(=O)C6CCCCC6)[C@](C)(C(=O)O)[C@@H]5CC[C@]43C)[C@H]12 [CKBA, 3-o-α-cyclohexanoyl-11-keto-β-boswellic acid]
platform crossover number (AD mice): significant increase
time spent in the opposite quadrant (AD mice): significant decrease
time spent in the specific effective area (center area) as a percentage of total movement time (AD mice): significant increase
expansion of inflammatory microglia (LPS-activated BV2 cells): significantly inhibited the expansion of inflammatory microglia
peroxisome stability (LPS-activated BV2 cells): maintained peroxisome stability
solubility (Solubility description): lipophilic, soluble in methanol/DMSO, insoluble in water
activity of inflammatory microglia (OCR) (inflammatory microglia): significantly inhibited the activity of inflammatory microglia
blood-brain barrier permeability [2]: could effectively cross the blood-brain barrier
expression and content of MFE-2 after LPS stimulation (MFE-2 [3]; LPS-stimulated BV2 cells): effectively maintained the expression and content of MFE-2
baseline expression level of MFE-2 (MFE-2 [3]; normal BV2 cells, no LPS): did not affect the baseline expression level of MFE-2
